Consider 23 compounds from patent US7034035B2, “Fungicidal mono-, bi-, and tri-cycloheteroalkyl amides and their compositions, methods of use and preparation” (priority 1999, dated 2006).

The structures appear in SMILES notation.

One test relates to Ustilago maydis (USTIMA). Nature of the test: microbe, parasite or virus in culture. It counts as cell-based.
Test [1] relates to Rhizoctonia solani (RHIZSO). Nature of the test: microbe, parasite or virus in culture. Format: cell-based.
Further: test concentration or dose not given here.

With `COc1ccnc(C(=O)NC2CC(C)(C)C=CC=C2C)c1O` (stereo not shown) [Compound 278], the “USTIMA in vitro Growth Inhibition” value with Ustilago maydis (USTIMA) is reported as “− (key: +: at least 80% growth inhibition; −: less than 80% growth inhibition)”. Also, in test [1], the “RHIZSO in vitro Growth Inhibition” value is “− (key: +: at least 80% growth inhibition; −: less than 80% growth inhibition)”.
Regarding `COc1ccnc(C(=O)N[C@@H]2CC3CC2C[C@@H]3COCc2cccc(C(F)(F)F)c2)c1O` (stereo partly shown) [Compound 297], the “USTIMA in vitro Growth Inhibition” value in the test on Ustilago maydis (USTIMA) is “− (key: +: at least 80% growth inhibition; −: less than 80% growth inhibition)”. Also, the “RHIZSO in vitro Growth Inhibition” value in test [1] is listed as “+ (key: +: at least 80% growth inhibition; −: less than 80% growth inhibition)”.
For `COc1ccnc(C(=O)NC2CC(C)(C)C3OC3[C@H](C)[C@H]2C)c1O` (stereo partly shown) [Compound 280], in that order: “− (key: +: at least 80% growth inhibition; −: less than 80% growth inhibition)” and “− (key: +: at least 80% growth inhibition; −: less than 80% growth inhibition)”.
In the same order, the values of `COc1ccnc(C(=O)NC2COC3(CC(C)(C)CC(C)(C)C3)OC2)c1O` [Compound 315] are “− (key: +: at least 80% growth inhibition; −: less than 80% growth inhibition)” and “− (key: +: at least 80% growth inhibition; −: less than 80% growth inhibition)”.
For `COc1ccccc1CNC(=O)c1ncccc1O` [Compound 224], in that order: “− (key: +: at least 80% growth inhibition; −: less than 80% growth inhibition)” and “− (key: +: at least 80% growth inhibition; −: less than 80% growth inhibition)”.
Turning to `COc1ccnc(C(=O)N[C@H]2CO[C@@](C)(C(C)CC3=C(C)CCCC3(C)C)OC2)c1O` (stereo partly shown) [Compound 318], in the test with Ustilago maydis (USTIMA), the “USTIMA in vitro Growth Inhibition” value was “− (key: +: at least 80% growth inhibition; −: less than 80% growth inhibition)”. For the same compound, in test [1], the “RHIZSO in vitro Growth Inhibition” value was “+ (key: +: at least 80% growth inhibition; −: less than 80% growth inhibition)”.
Consider `COc1ccnc(C(=O)NC2C3(C)CCC(C3)C2(C)C)c1O` (stereo not shown) [Compound 288], for which the “USTIMA in vitro Growth Inhibition” value in the test with Ustilago maydis (USTIMA) was “− (key: +: at least 80% growth inhibition; −: less than 80% growth inhibition)”. Moreover, in test [1], the “RHIZSO in vitro Growth Inhibition” value is listed as “+ (key: +: at least 80% growth inhibition; −: less than 80% growth inhibition)”.
With `COc1ccnc(C(=O)NCC(C)(C)Sc2ncc(C(F)(F)F)cc2Cl)c1O` [Compound 244], the “USTIMA in vitro Growth Inhibition” value with Ustilago maydis (USTIMA) was “− (key: +: at least 80% growth inhibition; −: less than 80% growth inhibition)”. Also, the “RHIZSO in vitro Growth Inhibition” value in test [1] is “− (key: +: at least 80% growth inhibition; −: less than 80% growth inhibition)”.
Consider `Cc1cc(C)cc(NC(=O)c2ncccc2O)c1` [Compound 215], for which the “USTIMA in vitro Growth Inhibition” value in the test with Ustilago maydis (USTIMA) is reported as “− (key: +: at least 80% growth inhibition; −: less than 80% growth inhibition)”. Further, the “RHIZSO in vitro Growth Inhibition” value in test [1] was “− (key: +: at least 80% growth inhibition; −: less than 80% growth inhibition)”.
With `O=C(Nc1nccs1)c1ncccc1O` [Compound 235], the “USTIMA in vitro Growth Inhibition” value with Ustilago maydis (USTIMA) was “+ (key: +: at least 80% growth inhibition; −: less than 80% growth inhibition)”. Also, in test [1], the “RHIZSO in vitro Growth Inhibition” value is “+ (key: +: at least 80% growth inhibition; −: less than 80% growth inhibition)”.
Turning to `COc1ccnc(C(=O)N[C@H]2[C@@H](OC(C)=O)O[C@H](COC(C)=O)[C@@H](OC(C)=O)[C@@H]2OC(C)=O)c1O` [Compound 335], the “USTIMA in vitro Growth Inhibition” value with Ustilago maydis (USTIMA) is “− (key: +: at least 80% growth inhibition; −: less than 80% growth inhibition)”. The “RHIZSO in vitro Growth Inhibition” value in test [1] is “− (key: +: at least 80% growth inhibition; −: less than 80% growth inhibition)”.
Take `COc1ccnc(C(=O)NCC2COCCOCCOCCOCCO2)c1O` (stereo not shown) [Compound 245]: in the test on Ustilago maydis (USTIMA), the “USTIMA in vitro Growth Inhibition” value is recorded as “− (key: +: at least 80% growth inhibition; −: less than 80% growth inhibition)”. Further, in test [1], the “RHIZSO in vitro Growth Inhibition” value is “− (key: +: at least 80% growth inhibition; −: less than 80% growth inhibition)”.
Regarding `COc1ccnc(C(=O)NCCCc2cccnc2)c1O` [Compound 243], in the test on Ustilago maydis (USTIMA), the “USTIMA in vitro Growth Inhibition” value is given as “− (key: +: at least 80% growth inhibition; −: less than 80% growth inhibition)”. The “RHIZSO in vitro Growth Inhibition” value in test [1] was “− (key: +: at least 80% growth inhibition; −: less than 80% growth inhibition)”.
With `COc1ccnc(C(=O)NC2CC(C)(C)C(Cl)C(Cl)[C@H](C)[C@H]2C)c1O` (stereo partly shown) [Compound 281], the “USTIMA in vitro Growth Inhibition” value in the test on Ustilago maydis (USTIMA) was “− (key: +: at least 80% growth inhibition; −: less than 80% growth inhibition)”. Besides, the “RHIZSO in vitro Growth Inhibition” value in test [1] is on record as “− (key: +: at least 80% growth inhibition; −: less than 80% growth inhibition)”.
For the compound `O=C(Nc1ccc(Oc2ccc(C(F)(F)F)cc2)cc1)c1ncccc1O` [Compound 217], the “USTIMA in vitro Growth Inhibition” value in the test on Ustilago maydis (USTIMA) is listed as “− (key: +: at least 80% growth inhibition; −: less than 80% growth inhibition)”. In test [1], the “RHIZSO in vitro Growth Inhibition” value is “− (key: +: at least 80% growth inhibition; −: less than 80% growth inhibition)”.
On to `COc1ccnc(C(=O)NC2c3ccccc3CC2(C)C)c1O` (stereo not shown) [Compound 284], for which the “USTIMA in vitro Growth Inhibition” value in the test with Ustilago maydis (USTIMA) is on record as “− (key: +: at least 80% growth inhibition; −: less than 80% growth inhibition)”. The “RHIZSO in vitro Growth Inhibition” value in test [1] is recorded as “− (key: +: at least 80% growth inhibition; −: less than 80% growth inhibition)”.
`C[C@H](NC(=O)c1ncccc1O)c1cccc2ccccc12` [Compound 232]: in the test on Ustilago maydis (USTIMA), the “USTIMA in vitro Growth Inhibition” value is given as “− (key: +: at least 80% growth inhibition; −: less than 80% growth inhibition)”. Moreover, the “RHIZSO in vitro Growth Inhibition” value in test [1] was “− (key: +: at least 80% growth inhibition; −: less than 80% growth inhibition)”.
Consider `COc1ccnc(C(=O)NC2CCN(Cc3ccc(C)cc3)CC2)c1O` [Compound 306], for which the “USTIMA in vitro Growth Inhibition” value in the test with Ustilago maydis (USTIMA) is “− (key: +: at least 80% growth inhibition; −: less than 80% growth inhibition)”. Moreover, the “RHIZSO in vitro Growth Inhibition” value in test [1] was “− (key: +: at least 80% growth inhibition; −: less than 80% growth inhibition)”.
Take `COc1ccnc(C(=O)NC2CC3CCC2C3)c1O` (stereo not shown) [Compound 287]: the “USTIMA in vitro Growth Inhibition” value with Ustilago maydis (USTIMA) is given as “− (key: +: at least 80% growth inhibition; −: less than 80% growth inhibition)”. The “RHIZSO in vitro Growth Inhibition” value in test [1] is reported as “+ (key: +: at least 80% growth inhibition; −: less than 80% growth inhibition)”.
For `CCCO[C@@H]1[C@@H](OCCC)[C@H](OCCC)CO[C@H]1NC(=O)c1nccc(OC)c1O` [Compound 331], in that order: “− (key: +: at least 80% growth inhibition; −: less than 80% growth inhibition)” and “− (key: +: at least 80% growth inhibition; −: less than 80% growth inhibition)”.
Consider `COc1ccnc(C(=O)NC2CC(C)(C)CC(C)(C)C2)c1O` [Compound 250], for which the “USTIMA in vitro Growth Inhibition” value in the test on Ustilago maydis (USTIMA) is on record as “− (key: +: at least 80% growth inhibition; −: less than 80% growth inhibition)”. Further, the “RHIZSO in vitro Growth Inhibition” value in test [1] is “− (key: +: at least 80% growth inhibition; −: less than 80% growth inhibition)”.
Consider `O=C(Nc1cccc(C(F)(F)F)c1)c1ncccc1O` [Compound 214], for which the “USTIMA in vitro Growth Inhibition” value in the test on Ustilago maydis (USTIMA) is given as “− (key: +: at least 80% growth inhibition; −: less than 80% growth inhibition)”. In test [1], the “RHIZSO in vitro Growth Inhibition” value is “− (key: +: at least 80% growth inhibition; −: less than 80% growth inhibition)”.
Turning to `O=C(NCCCCc1ccccc1)c1ncccc1O` [Compound 234], in the test on Ustilago maydis (USTIMA), the “USTIMA in vitro Growth Inhibition” value is reported as “− (key: +: at least 80% growth inhibition; −: less than 80% growth inhibition)”. Further, the “RHIZSO in vitro Growth Inhibition” value in test [1] is “− (key: +: at least 80% growth inhibition; −: less than 80% growth inhibition)”.
